Results on ten molecules are retold here after patent US20250098651A1, “A NON-HUMAN MAMMAL COMPRISING IN ITS GENOME AT LEAST TWO HUMAN LEUKOCYTE ANTIGEN (HLA) CLASS I ALLELES, METHODS OF MAKING SUCH MAMMAL AND USES THEREOF” (Max-Delbrueck-Centrum für Molekulare Medizin in der …, priority 2022, published 2025).

Experiment [1] deals with CD8^+ T cells. Description: Peptide immunization of ABab.I mice, intracellular IFN-γ staining of CD8+ T cells. The note with it: for CD8^+ T cells produced IFN-γ: ABab.I mice, peripheral blood restimulated in vitro seven days post-injection; for mice responded: out of 6-7 mice/antigen. The experiment is classed as in vivo, mouse. As to the method: A 200 μl injection suspension containing 100 μg of short peptides in PBS, 100 μl of incomplete Freund's adjuvant, and 50 μg CpG oligonucleotides were injected subcutaneously on both lateral sides of hind legs. 10- to 20-week-old young ABabDII or ABab.I mice (6-7 mice/group) were immunized with a 4-week interval between prime-boosts. […] As standard controls, ABabDII^1 and ABab.I mice were immunized with 100 μg of MAGE-A1278 […] […] 7-10 days after every boost injection, peripheral blood cells from immunized mice were ACK-lysed and cultured with 1 μM respective specific or unspecific peptide in the presence of protein transport inhibitor for 5-6 hours. Post-cell fixation, cells were intracellularly stained for IFN-γ, surface stained for CD3, CD8 markers, and analyzed by flow cytometry.
We analyzed ABab.I mice for antigen-specific CD8^+ T cell responses against described model antigens (FIG. 19A) using peptide immunization (FIG. 20). […] The MAGE-A1 epitope, […] The unspecific peptide used in in vitro restimulations was a NY-ESO epitope, […] (SEQ ID NO: 180).
Procedure: young mice were peptide-immunized (minimum twice) with intervals of at least 4-weeks between injections. Seven days post-booster injections, PBMCs from multi-HLA mice were stimulated in vitro with either the same peptides used for immunization (right), or unspecific peptides (left), or CD3/CD28 beads (middle, positive control). Intracellular flow cytometry staining measured the amount of IFN-γ cytokine released by the CD8^+ T cells after reacting to their respective epitopes. By flow cytometry, CD8^+ T cells were in vitro measured for CD3, CD8, and intracellularly IFN-γ expression. Dot plots in the figure depict CD8^+ IFN-γ^+ T cells (gated on CD3^+ lymphocytes). As an unspecific peptide, NY-ESO peptide ([…]) was used (as a negative control) only for in vitro stimulations.

For experiment [2], the system named is CD8^+ T cells. As to the kind of experiment: Peptide immunization of ABabDII mice, CD8+ T cell IFN-γ response. The format is in vivo, mouse. As to the method:
A 200 μl injection suspension containing 100 μg of short peptides in PBS, 100 μl of incomplete Freund's adjuvant, and 50 μg CpG oligonucleotides were injected subcutaneously on both lateral sides of hind legs. 10- to 20-week-old young ABabDII or ABab.I mice (6-7 mice/group) were immunized with a 4-week interval between prime-boosts. Similar peptide mixtures were prepared and injected for further boosting regimens of all peptides. As standard controls, ABabDII^1 and ABab.I mice were immunized with 100 μg of MAGE-A1278 […] (SEQ ID NO: 26) peptide with a similar injection mixture. 7-10 days after every boost injection, peripheral blood cells from immunized mice were ACK-lysed and cultured with 1 μM respective specific or unspecific peptide in the presence of protein transport inhibitor for 5-6 hours. Post-cell fixation, cells were intracellularly stained for IFN-γ, surface stained for CD3, CD8 markers, and analyzed by flow cytometry.
For TCR candidate discovery, young ABabDII mice (n=7, 12-16 weeks) were immunized with mutant 9-mer peptides (FIG. 3B, […], SEQ ID NO: 30) at 4-week intervals. CD8^+ T cell responses were analyzed in blood one week after every boost using intracellular staining, followed by culturing the T cells and IFN-γ capture assay to sort for peptide-specific T cells (FIG. 4A). […]

The test system of the next experiment is A375 cells. As to the kind of experiment: Endogenous processing assay, co-culture with A375 cells, IFN-γ. The experiment is classed as cell-based, Homo sapiens. Particulars: concluded from TCR co-culture with TRRAP+ cell lines. From the text:
FIGS. 4A-4F show the generation and characterization of TRRAP S722F TCRs in ABabDII mice. FIG. 4A depicts the TCR discovery pipeline with the immunization schedule as used in an illustrative example. […] Controls with wild-type S722 peptide or without (w/o) peptide. One representative flow cytometry plot out of three responder mice is given. […] IFN-γ levels measured after overnight co-culture of PBMCs (1×10^5) either with A375 cells (mutant-S722F^+, NY-ESO^+) or with SK-Mel-37 (wild-type-S722^+, NY-ESO^+). The TCR-ESO recognizes the NY-ESO157-165 epitope. Bar graph represents mean±SD (n=2). One representation out of three co-culture experiments is given.
Transduced T cells were co-cultured with peptide-titrated T2 (TAP^−/−) cells to ensure TCR interaction and its affinity to S722F. […] NY-ESO157-165, the HLA-A2 epitope is expressed on melanoma cells A375 and SK-Mel-37.

Experiment [3] addresses T1, TRRAP (wild-type S722) peptide on HLA-A*02:01 (human).
T1 peptide: KLVFGSVSL
Description: cytokine release.

Experiment [4] deals with T2, TRRAP S722F peptide on HLA-A*02:01 (human).
T2 peptide: KLVFGSVFL
As to the kind of experiment: cytokine release.

Consider VRIGHLYIL, for which, in the experiment with CD8^+ T cells [1], the “CD8^+ T cells produced IFN-γ” value was “about 0.23%” and the mice responded was found to be 1.

As for TPRVTGGGAM, the “CD8^+ T cells produced IFN-γ” value in the experiment on CD8^+ T cells [1] is recorded as “About 1.4%”. In the case of VVGAVGVGK, in the experiment on CD8^+ T cells [1], the “CD8^+ T cells produced IFN-γ” value is recorded as “About 6.9%” and the mice responded stood at 6. Turning to “APRGPHGGAASGL (NY- ESO peptide; NY- ESO epitope) [unspecific NY-ESO peptide used for in vitro restimulation]”, in the experiment on CD8^+ T cells [1], the “CD8^+ T cells produced IFN-γ” value is on record as “No T cell responses were observed”. Consider SAFRCFIVY, for which, in the experiment on CD8^+ T cells [1], the “CD8^+ T cells produced IFN-γ” value is reported as “about 0.2%” and the mice responded was 3.

Turning to KVLEYVIKV, in the experiment on CD8^+ T cells [1], the “CD8^+ T cells produced IFN-γ” value was ~1% and the mice responded is 3. For the molecule QYDPVAALF, the “CD8^+ T cells produced IFN-γ” value in the experiment on CD8^+ T cells [1] is “about 0.3%”. Take “KLVFGSVEL [mutant epitope-S722F, TRRAP S722F mutant nonamer, HLA-A2-restricted]”: the “T cells responding in the spleen after T cell culturing” value in the experiment on CD8^+ T cells [2] (10^−9 M peptide and IL-2 (20 IU/ml) for 10 days) is listed as “about 17%”. The “T cells responded in blood” value in the experiment on CD8^+ T cells [2] (ABabDII mice, one-week post-4th injection (3rd boost)) is “about 0.8%”. For the same molecule, in the experiment on A375 cells, the “endogenous processing and presentation on HLA-A2” value is “not endogenously processed and presented on HLA-A2”. In the case of KMRMRRMRR, in the experiment on CD8^+ T cells [1], the “CD8^+ T cells produced IFN-γ” value is “about 1.8%” and the mice responded worked out at 1.

B1: TRRAP S722F TCR, dominant TCR Valpha17-Vbeta27 pair (TCR)
alpha TRAV17-1 TRAJ58 CDR3: CATDAEETSGSRLTF
beta TRBV27-1 TRBJ2-1 CDR3: CASSLAGIYNEQFF
In the case of B1, the binding result in experiment [3] is “no recognition”; in experiment [4], “recognises”.
